# Laboratory results taken from US20250230193A1, “CYCLIC COMPOUND HAVING SELECTIVE KRAS INHIBITORY EFFECT ON HRAS AND NRAS” (CHUGAI SEIYAKU KABUSHIKI KAISHA, priority 2022, published 2025).
# Where a SMILES comes first, the peptide text is derived from it. Bridges are numbered along the chain shown (N, C = ends). [ ]: non-standard residue; d: D form. The star is where a group is joined. hPhe(3-Cl-4-CF3) = N[C@@H](CCc1ccc(C(F)(F)F)c(Cl)c1)C(=O)O; NPrPhe(4-CF3) = CCCN[C@@H](Cc1ccc(C(F)(F)F)cc1)C(=O)O; NMeGly(cPent) = CN[C@H](C(=O)O)C1CCCC1; NMeD = CN[C@@H](CC(=O)O)C(=O)O; NMeL = CN[C@@H](CC(C)C)C(=O)O; Morpholide = C1CN(*)CCO1; Ac5c = NC1(C(=O)O)CCCC1; Aze = O=C(O)[C@@H]1CCN1; Sar = CNCC(=O)O
# How the values were obtained:
# [1] = molecular target: GDP-bound NRAS wild-type protein (Homo sapiens, UniProt P01111); assay: Binding to NRAS by surface plasmon resonance (SPR), Single Cycle Kinetics; conditions: SPR
# Chain of GDP-bound NRAS wild-type protein (P01111 whole entry): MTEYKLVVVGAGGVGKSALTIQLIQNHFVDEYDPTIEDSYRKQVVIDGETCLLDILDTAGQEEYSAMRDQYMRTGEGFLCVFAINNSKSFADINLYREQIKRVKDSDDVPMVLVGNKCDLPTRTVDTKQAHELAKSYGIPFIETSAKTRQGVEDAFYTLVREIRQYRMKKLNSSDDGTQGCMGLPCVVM
# [2] = molecular target: GDP-bound HRAS wild-type protein (Homo sapiens, UniProt P01112); assay: Binding to HRAS by surface plasmon resonance (SPR), Single Cycle Kinetics; conditions: SPR
# Chain of GDP-bound HRAS wild-type protein (P01112 whole entry): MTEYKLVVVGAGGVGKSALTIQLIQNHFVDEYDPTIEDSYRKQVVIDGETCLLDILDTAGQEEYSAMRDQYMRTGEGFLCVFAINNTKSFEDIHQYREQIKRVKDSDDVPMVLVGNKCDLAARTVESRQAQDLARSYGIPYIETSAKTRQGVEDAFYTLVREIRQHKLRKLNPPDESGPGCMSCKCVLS
# [3] = KD ratio, GDP-bound NRAS wild-type vs GDP-bound KRAS wild-type
# [4] = KD ratio, GDP-bound HRAS wild-type vs GDP-bound KRAS wild-type
compound,measurement,setting,value
CCCN(C)C(=O)[C@@H]1CC(=O)N(C)[C@@H](CC(F)F)C(=O)N[C@@H]([C@@H](C)CC)C(=O)N(C)CC(=O)N(C)[C@H]2C/C=C\CCN(C2=O)[C@@H](Cc2ccc(C(F)(F)F)cc2)C(=O)N(C)CC(=O)N[C@@H](CCc2ccc(C(F)(F)F)c(OC)c2)C(=O)N2C[C@@H](C)C[C@H]2C(=O)NC2(CCC2)C(=O)N(C)[C@@H](C2CCCC2)C(=O)N1C [PP2024],NRAS/KRAS (ratio of KD value for NRAS to KD value for KRAS),[1]; [3],A (a compound having 10 or more and less than 20 is denoted as A)
same,HRAS/KRAS (ratio of KD value for HRAS to KD value for KRAS),[2]; [4],B (a compound having 3 or more and less than 10 is denoted as B)
CCO[C@@H]1C[C@H]2C(=O)NC3(CCC3)C(=O)N(C)[C@@H](C3CCCC3)C(=O)N(C)[C@H](C(=O)N(C)C)CC(=O)N(C)[C@@H](Cc3cccnc3)C(=O)N[C@@H]([C@@H](C)CC)C(=O)N(C)CC(=O)N(C)[C@H]3CCCCCN(C3=O)[C@@H](Cc3ccc(F)cc3)C(=O)N(C)CC(=O)N[C@@H](CCc3cc(F)c(C(F)(F)F)c(F)c3)C(=O)N2C1 [PP1196],NRAS/KRAS (ratio of KD value with respect to NRAS to KD value with respect to KRAS),[1]; [3],B (a compound having 3 or more and less than 10 is denoted as B)
same,HRAS/KRAS (ratio of KD value with respect to HRAS to KD value with respect to KRAS),[2]; [4],B (a compound having 3 or more and less than 10 is denoted as B)
CCO[C@@H]1C[C@H]2C(=O)NC3(CCC3)C(=O)N(C)[C@@H](C3CCCC3)C(=O)N(C)[C@H](C(=O)N(C)CCOC)CC(=O)N(C)[C@@H](CC(F)F)C(=O)N[C@@H]([C@@H](C)CC)C(=O)N(C)CC(=O)N(C)[C@H]3C/C=C\CCN(C3=O)[C@@H](Cc3ccc(C(F)(F)F)cc3)C(=O)N(C)CC(=O)N[C@@H](CCc3cc(F)c(C(F)(F)F)c(F)c3)C(=O)N2C1 [PP1320],NRAS/KRAS (ratio of KD value for GDP-bound NRAS wild-type protein to KD value for KRAS),[1]; KD ratio class,A (a compound having 10 or more and less than 20 is denoted as A)
same,HRAS/KRAS (ratio of KD value for GDP-bound HRAS wild-type protein to KD value for KRAS),[2]; KD ratio class,A (a compound having 10 or more and less than 20 is denoted as A)
CCCO[C@@H]1C[C@H]2C(=O)NC3(CCC3)C(=O)N(C)[C@@H](C3CCCC3)C(=O)N(C)[C@H](C(=O)N3CCOCC3)CC(=O)N(C)[C@@H](COC)C(=O)N[C@@H]([C@@H](C)CC)C(=O)N(C)CC(=O)N(C)[C@H]3CCCCCN(C3=O)[C@@H](Cc3ccc(C(F)(F)F)cc3)C(=O)N(C)CC(=O)N[C@@H](CCc3cc(F)c(C(F)(F)F)c(F)c3)C(=O)N2C1 [PP0838],NRAS/KRAS (ratio of KD value with respect to NRAS to KD value with respect to KRAS),[1]; [3],B (a compound having 3 or more and less than 10 is denoted as B)
same,HRAS/KRAS (ratio of KD value with respect to HRAS to KD value with respect to KRAS),[2]; [4],B (a compound having 3 or more and less than 10 is denoted as B)
CCCN1C(=O)CN(C)C(=O)CN(C)C(=O)[C@H]([C@@H](C)CC)NC(=O)[C@H](CC(C)C)N(C)C(=O)C[C@@H](C(=O)N2CCOCC2)N(C)C(=O)[C@H](C2CCCC2)N(C)C(=O)C2(CCCC2)NC(=O)[C@@H]2CCN2C(=O)[C@H](CCc2ccc(C(F)(F)F)c(Cl)c2)NC(=O)CN(C)C(=O)[C@@H]1Cc1ccc(C(F)(F)F)cc1 [PP0260] ([NMeL]I[Sar][Sar][NPrPhe(4-CF3)][Sar][hPhe(3-Cl-4-CF3)][Aze][Ac5c][NMeGly(cPent)][NMeD]-Morpholide; lactam N-11),NRAS/KRAS (ratio of KD for GDP-bound NRAS wild-type to KD for KRAS),[1]; KD ratio NRAS/KRAS,B (a compound having 3 or more and less than 10 is denoted as B)
same,HRAS/KRAS (ratio of KD for GDP-bound HRAS wild-type to KD for KRAS),[2]; KD ratio HRAS/KRAS,C (A compound having a KD ratio of 0.1 or more and less than 3 is denoted as C)
CCCN1C(=O)CN(C)C(=O)[C@@H]2CCN2C(=O)[C@H]([C@@H](C)CC)NC(=O)[C@H](CC(C)C)N(C)C(=O)C[C@@H](C(=O)N(C)C)N(C)C(=O)[C@H](C2CCCC2)N(C)C(=O)C2(CCCC2)NC(=O)[C@@H]2CCCN2C(=O)[C@H](CCc2ccc(C(F)(F)F)c(Cl)c2)NC(=O)CN(C)C(=O)[C@@H]1Cc1ccc(C(F)(F)F)cc1 [PP0429] ([NMeL]I[Aze][Sar][NPrPhe(4-CF3)][Sar][hPhe(3-Cl-4-CF3)]P[Ac5c][NMeGly(cPent)][NMeD]-NMe2; lactam N-11),NRAS/KRAS (ratio of KD value with respect to GDP-bound NRAS wild-type protein to KD value with respect to KRAS),[1]; KD ratio NRAS/KRAS,B (a compound having 3 or more and less than 10 is denoted as B)
same,HRAS/KRAS (ratio of KD value with respect to GDP-bound HRAS wild-type protein to KD value with respect to KRAS),[2]; KD ratio HRAS/KRAS,C (A compound having a KD ratio of 0.1 or more and less than 3 is denoted as C)
